Experimental data as given in PubChem BioAssay AID624344 (Sanford-Burnham Center for Chemical Genomics, 2012).
The source made the active and inactive calls. No rule for the calls is given here.

What was measured:
[1] = inhibitors of PAF-induced NFkB signaling in CF airway cells, dose response, cell-based, uHTS hits, panel, cytotoxicity readout (AID 624344); settings: CF bronchial epithelial cells, PAF-induced NFkB reporter inhibition; with PAF, mean of runs
Cytotoxicity = assay: as above; settings: CF bronchial epithelial cells, mean of runs

Compound | IC50 [1] | IC50 (Cytotoxicity)
CC(=C/c1ccccc1)/C=N/n1c(-c2ccncc2)n[nH]c1=S | 0.43 µM | 65.2 µM (inactive)
O=C(Nc1cccc(Cl)c1)Nc1csc([N+](=O)[O-])c1 | 4.12 µM | 0.788 µM
Cc1cnc(NC(=O)C2CC(=O)N(c3cccc(Cl)c3)C2)s1 (stereo not drawn) | 3.18 µM | 29.1 µM
Clc1cncc(Cl)c1N/N=C/c1ccncc1 | 1.67 µM | 12.5 µM
CC(C)C[C@@H](CN1CCC[C@@H]1CN1C(=S)NC[C@@H]1Cc1ccc(O)cc1)N1C[C@H](Cc2ccc(O)cc2)N(CC2CCCCC2)C1=S | 17 µM | 18.8 µM
C=C(C)COc1ccc(-c2[nH]ncc2-c2ccc(OC)cc2)c(O)c1 | 5.07 µM | 24 µM
COc1cc(C2c3cc4c(cc3C3OC(=O)C2C3CO)OCO4)cc(OC)c1OC (stereo not drawn) | inactive | > 79 µM (inactive)
Cc1cccc(C(=O)N2[C@@H](C(C)C)COc3cc(Br)ccc3S2(=O)=O)c1 | 11.1 µM | 37.8 µM
COC1(OC)C=CC(=O)C=C1NC(=O)c1ccccc1OC(C)=O | 4.11 µM | 15.2 µM
COc1cc(/C=N/NC(=O)Nc2cccc3nsnc23)cc(OC)c1OC | 2.53 µM | 14.7 µM
CC(=O)Nc1nc(C)c(-c2csc(Nc3cccc(C(C)=O)c3)n2)s1 | 0.538 µM | 40.1 µM
CC(C)n1c(SCc2ccccc2F)nc2c1c(=O)n(C)c(=O)n2C | 7.01 µM | > 79 µM (inactive)
COCCNc1nc(Oc2cncc(Cl)c2)c2sccc2n1 | 2.9 µM | 29.1 µM
COc1ccc(-c2cnc3c(NC=O)cc(-c4ccccc4OC)cn23)cc1OC | 6.5 µM | 13.7 µM
CC[C@@H](C(=O)[C@@H](C)[C@@H](O)[C@H](C)[C@@H]1O[C@@H]([C@@H](CC)C(=O)O)CC[C@@H]1C)[C@H]1O[C@]2(C=C[C@@H](O)[C@]3(CC[C@@](C)([C@H]4CC[C@](O)(CC)[C@H](C)O4)O3)O2)[C@H](C)C[C@@H]1C | 0.399 µM | 2.36 µM
COc1ccc(-n2c(C)c(C(C)=O)c3cc(O)ccc32)cc1 | 0.308 µM | > 79 µM (inactive)
COc1ccc(OC)c(-c2nnc3n2N=C(c2ccc(OC)c(OCC4CC4)c2)CS3)c1 | 3.87 µM | 47.7 µM
COc1ccc(-c2[nH]ncc2-c2ccc3c(c2)OCCO3)c(O)c1 | 0.186 µM | 65.4 µM (inactive)
Cc1ccc(C(C(=O)NCc2ccccc2)N(Cc2cccs2)C(=O)c2ccc3c(c2)OCCO3)cc1 (stereo not drawn) | 3.04 µM | 3.48 µM
c1ccc2c(-c3cncc4ccccc34)cncc2c1 | 6.1 µM | 56.9 µM (inactive)

Compound | IC50 [1] | IC50 (Cytotoxicity)
CN(c1cccc(Cl)c1)S(=O)(=O)c1cccc(C(=O)Nc2nc3ccccc3[nH]2)c1 | 6.19 µM | 12.2 µM
COc1ccc(OC)c(C2CC(=O)c3c([nH]c(C(=O)OC(C)C)c3C)C2)c1 (stereo not drawn) | inactive | > 79 µM (inactive)
COc1ccc(N(CCCN2C(=O)c3cccc4cccc(c34)C2=O)C(=O)c2ccncc2)cc1 | inactive | 12.9 µM
O=c1[nH]c2ccccc2n1C1CCN(C(c2cc3ccccc3o2)c2nnnn2-c2ccc3c(c2)OCCO3)CC1 (stereo not drawn) | 3.2 µM | 10.2 µM
Nc1cc2c(cc1Br)-c1ccccc1C2=NO | 11.9 µM | 60.6 µM (inactive)
O=c1[nH]nc(Sc2ncnc3sccc23)n1CCc1ccccc1 | 3.07 µM | 19 µM
COc1ccc(Nc2nccc(-c3cccc(N)c3)n2)cc1 | 4.14 µM | 42.6 µM
Cc1ccc(C(=O)Nc2cccc(C(F)(F)F)c2)cc1NC(=O)c1cnnc2ccccc12 | 6.43 µM | 22.6 µM
CS(=O)(=O)c1ccc2nc(NC(=O)Nc3cccc(Cl)c3)sc2c1 | 3.67 µM | 3.28 µM
CCc1cc2c(Sc3nc4ccccc4s3)ncnc2s1 | 1.03 µM | 1.74 µM
CC(=O)c1c(C)n(C2CCCCC2)c2ccc(O)cc12 | 0.797 µM | > 79 µM (inactive)
Cc1cccc(N=c2oc3cc(O)ccc3cc2C(N)=O)c1 | 2.77 µM | 45.3 µM
COc1ccc(CNC(=O)C(c2ccc(O)cc2)N(Cc2ccco2)C(=O)c2snc(C(N)=O)c2N)cc1 (stereo not drawn) | 4.58 µM | 5 µM
COc1ccc(-n2cc(-c3ccccc3)c3c(N4CC(C)OC(C)C4)ncnc32)cc1 (stereo not drawn) | 4.95 µM | 3.56 µM
COc1ccc(-c2cc(C(F)(F)F)nc(S(=O)(=O)CCCC(=O)Nc3cccnc3Cl)n2)cc1OC | 1.44 µM | 1.32 µM
COc1ccc(-n2nnnc2C(CCSC)N2CCC(n3c(=O)[nH]c4ccccc43)CC2)cc1 (stereo not drawn) | 6.48 µM | 13.7 µM
CCCN(CC)c1ncnc2[nH]ncc12 | 1.55 µM | 36.3 µM
CCC(C)Oc1cc(-c2ccnc(Nc3cccc(Cl)c3)n2)ccn1 (stereo not drawn) | 3.28 µM | 5.62 µM
Cc1nnc(Sc2nc3ccccc3o2)c2ccccc12 | 6.57 µM | 5.61 µM
O=C(Nc1ccc(Br)c2ccccc12)c1ccc2ccccc2c1O | 1.93 µM | 2.38 µM

Compound | IC50 [1] | IC50 (Cytotoxicity)
COc1cc(C(=O)c2cc3c(cc2C)OCO3)cc(OC)c1OC | > 79 µM (inactive) | 44.5 µM
Cc1ccc(NC(=O)Nc2nnc(-c3ccncc3)s2)cc1 | 5.53 µM | 11 µM
COc1cncc(-c2cnc3sc(NCCc4ccccn4)nn23)c1 | 1.53 µM | > 79 µM (inactive)
CC1=C(/C=C/C(C)=C/C=C/C(C)=C\C(=O)O)C(C)(C)CCC1 | 0.64 µM | > 79 µM (inactive)
COc1ccc2c(=O)cc(-c3ccncc3)oc2c1OC | 3.97 µM | 13.6 µM
C=CCOc1c(OC)cc(/C=N/Nc2cccc(C(=O)O)c2)c(Br)c1Br | 15.3 µM | 44.5 µM
CCN1CCN(Cc2ccc(NC(=O)c3ccc(C)c(NC(=O)c4cccc5[nH]ccc45)c3)cc2C(F)(F)F)CC1 | 7.33 µM | 47.7 µM
COc1ccc(-n2nnnc2C(c2cccc(OC)c2OC)N2CCC(n3c(=O)[nH]c4ccccc43)CC2)cc1 (stereo not drawn) | 6.65 µM | 9.39 µM
COc1ccc2[nH]cc(C(=O)CCl)c2c1 | 1.21 µM | 1.94 µM
CCOc1cc(Br)c(Br)c(C=Nc2ccc(NC(C)=O)cc2)c1O | 3.91 µM | > 79 µM (inactive)
O=C1NC(c2cccc3ccccc23)Nc2ccc(Cl)cc21 (stereo not drawn) | 8.66 µM | > 79 µM (inactive)
COc1ccc2c(c1OC)C(=O)N1c3ccccc3C(=O)N(c3ccccc3)C21 (stereo not drawn) | 0.902 µM | 2.94 µM
Cc1cnc(NC(=O)CCCc2nc3ccccc3s2)s1 | 4.23 µM | 44.5 µM
CCC(Oc1ccccc1)C(=O)Nc1ncc([N+](=O)[O-])s1 (stereo not drawn) | 9.05 µM | 31 µM
CN(C)/C=C/C(=O)c1ccc2noc(-c3ccccc3)c2c1 | 3.54 µM | 10.8 µM
Cc1ccc(-c2onc3ccc(C(=O)/C=C/N(C)C)cc23)cc1 | 9.39 µM | 22.9 µM
Cn1c(Oc2ccc(Cl)cc2)c(C=O)c2ccccc21 | 3.96 µM | 13.5 µM
O=C(Nc1ccccc1N1CCOCC1)c1cc(-c2ccco2)nc2ccccc12 | 3.88 µM | 9.59 µM
CC1(Cc2ccc(F)cc2)C(=O)Nc2ccc(-c3cccnc3)cc21 (stereo not drawn) | 2.54 µM | 18.8 µM
